Data on 4 compounds can be found in patent US6903133B2, “Anticancer compounds” (Plantaceutica, Inc., priority 2002, dated 2005).

The structures appear in SMILES notation.

The subject of this experiment is KB cells. Nature of the experiment: cytotoxicity against KB cells (sulforhodamine B assay). Type of experiment: cell-based. As to conditions: KB cells (nasopharyngeal carcinoma cells); result in words only. On the procedure: Podophyllotoxin derivatives of this invention can be preliminarily screened for their efficacy in treating cancer by in vitro assays. For example, podophyllotoxin derivatives can be tested for their cytotoxicity against KB cells (nasopharyngeal carcinoma). More specifically, a test compound can be added to a culture of KB cells and its IC50 (i.e., the concentration of the test compound which achieves a half-maximal inhibition of cell growth) is determined using the sulforhodamine B (a protein binding dye) assay as described in J.N.C.I. (1990) 82: 1107. The podophyllotoxin derivatives of this invention are also tested for their abilitives to inhibit DNA topoisomerase II in vitro as described in Cho et al. (1996 J. Med. Chem. 39: 1396) and to stimulate protein-linked DNA breaks (PLDB) in KB cells as described in Rowe et al. (1986 Cancer Res. 46:2021). DNA topoisomerase II is a well known target for cancer treatment drugs. See, e.g., MacDonald et al. (1991) DNA Topoisomerase in Cancer; Oxford University Press: New York.
A number of compounds of this invention were evaluated for cytotoxicity against KB cells, which are nasopharyngeal carcinoma cells. They were also tested for stimulation of cellular protein-linked DNA breaks (PLDB) using etoposide as a positive control. Etopside is a widely-used antineoplastic agent, see, e.g., Zhang et al. (1994) J. Med. Chem. 37: 446.
(In SRB staining, fixed cells bind dye roughly in proportion to their protein.)
Turning to `COc1cc([C@@H]2c3cc4c(cc3[C@@H](Nc3nc(COC(C)=O)cs3)[C@@H]3COC(=O)[C@H]23)OCO4)cc(OC)c1O` [Compound 36, 4′-O-demethyl-4β-[4″-(methyl-O-acetyl)-2″-thiazolylamino]-4-desoxypodophyllotoxin], the “IC50 values against KB cells” value is given as “unexpectedly low”.
With `CCOC(=O)c1ccc(N[C@@H]2c3cc4c(cc3[C@@H](c3cc(OC)c(O)c(OC)c3)[C@H]3C(=O)OC[C@H]32)OCO4)nc1` [Compound 39], the “IC50 values against KB cells” value is listed as “unexpectedly low”.
The entry for `CCOC(=O)c1sc(N[C@@H]2c3cc4c(cc3[C@@H](c3cc(OC)c(O)c(OC)c3)[C@H]3C(=O)OC[C@H]32)OCO4)nc1C` [Compound 45, 4′-O-demethyl-4β-(5″-ethoxycarbonyl-4″-methyl-2″-thiazolylamino)-4-desoxypodophyllotoxin] is “unexpectedly low”; for `COc1cc([C@@H]2c3cc4c(cc3[C@@H](Nc3ncc([N+](=O)[O-])s3)[C@@H]3COC(=O)[C@H]23)OCO4)cc(OC)c1O` [Compound 49, 4′-O-demethyl-4β-(5″-nitro-2″-thiazolylamino)-4-desoxypodophyllotoxin] it is “unexpectedly low”.
